pIC50: −log10 of the molar value.
Each compound was assayed against T1, USP8 (Homo sapiens, UniProt P40818) (assay: USP8 activity assay (Ub-AMC)). Conditions: 400 nM Ub-AMC, 630 pM enzyme, pH8.8, 30 min pre-incubation, 60 min at 37° C., sigmoidal fit; read-out: USP8 (inhibition of cysteine protease activity).
T1 construct: His tag (from vector pFastBac-HT) (N); made in house; host or cells: insect cells (Sf9 or High Five), baculovirus
T1 sequence (P40818 1-1118): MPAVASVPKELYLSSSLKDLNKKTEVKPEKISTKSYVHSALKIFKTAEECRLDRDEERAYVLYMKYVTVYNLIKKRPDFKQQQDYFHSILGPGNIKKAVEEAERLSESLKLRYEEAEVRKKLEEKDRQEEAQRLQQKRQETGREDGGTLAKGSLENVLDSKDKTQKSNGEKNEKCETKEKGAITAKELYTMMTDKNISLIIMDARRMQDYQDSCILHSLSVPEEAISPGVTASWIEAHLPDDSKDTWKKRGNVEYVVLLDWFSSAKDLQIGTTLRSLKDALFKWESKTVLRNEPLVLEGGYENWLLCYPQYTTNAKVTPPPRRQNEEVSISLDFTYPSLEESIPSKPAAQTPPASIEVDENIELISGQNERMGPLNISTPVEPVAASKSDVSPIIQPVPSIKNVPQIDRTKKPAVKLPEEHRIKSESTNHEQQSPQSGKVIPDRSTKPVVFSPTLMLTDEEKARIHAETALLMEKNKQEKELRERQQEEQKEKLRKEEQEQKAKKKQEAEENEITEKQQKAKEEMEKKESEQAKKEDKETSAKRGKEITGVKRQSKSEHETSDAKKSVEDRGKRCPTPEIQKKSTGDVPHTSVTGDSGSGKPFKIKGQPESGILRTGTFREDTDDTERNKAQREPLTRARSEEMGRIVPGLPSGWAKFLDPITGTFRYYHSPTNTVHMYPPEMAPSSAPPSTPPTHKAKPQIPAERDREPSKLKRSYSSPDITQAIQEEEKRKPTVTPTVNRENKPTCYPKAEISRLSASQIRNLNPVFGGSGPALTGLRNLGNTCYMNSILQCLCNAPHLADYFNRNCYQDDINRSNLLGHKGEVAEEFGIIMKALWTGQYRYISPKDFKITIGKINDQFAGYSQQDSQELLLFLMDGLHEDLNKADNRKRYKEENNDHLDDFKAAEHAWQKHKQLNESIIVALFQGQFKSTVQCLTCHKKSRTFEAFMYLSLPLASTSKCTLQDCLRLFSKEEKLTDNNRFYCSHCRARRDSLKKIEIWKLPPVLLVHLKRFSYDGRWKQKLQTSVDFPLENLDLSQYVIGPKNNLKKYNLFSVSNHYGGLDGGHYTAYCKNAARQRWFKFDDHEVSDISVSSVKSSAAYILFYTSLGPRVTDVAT
Assay type: biochemical
From the text: The cDNA encoding USP8 was obtained by PCR amplification from placenta mRNA. USP8 cDNA was subcloned by PCR into a baculovirus expression vector (pFastBac-HT; Invitrogen). A cDNA encoding a mutated USP8 was generated by mutagenic PCR. The corresponding protein encodes a cysteine to alanine substitution at residue 786. The sequences were ascertained by sequencing of the entire open reading frame. Bacmids encoding […] were generated following. DH10bac transposition. The corresponding bacmids were transfected into insect cells (Sf9). Viruses were recovered from culture supernatant and amplified twice. Insect cells (Sf9 or High Five; Invitrogen) were infected for 72 hours. Total cell lysates were harvested and lyzed in lysis buffer (Tris HCl 50 mM pH7.6; 0.75% NP40; 500 mM NaCl; 10% glycerol; 1 mM DTT; 10 mM imidazole; Protease Inhibitor Cocktail; AEBSF 20 μg.ml^−1; Aprotinin 10 μg.ml^−1). Proteins were affinity purified on metal affinity resins (Talon Metal affinity resin; BD Biosciences). Bound materials were extensively washed in wash buffer (50 mM Sodium Phosphate pH 7.0; 300 mM NaCl; 10 mM imidazole; 0.5% Triton X-100; 10% glycerol) and eluted from the resin in 250 mM imidazole-containing wash buffer. Proteins were dialyzed in dialysis buffer (Tris HCl pH 7.6 20 mM; NaCl 200 mM; DTT 1 mM; EDTA 1 mM; 10% Glycerol). Proteins purifications were analyzed on 4-12% NuPAGE (Invitrogen).
USP8 was diluted in USP buffer (50 mM Tris HCl; 0.5 mM EDTA; 5 mM DTT; 0.01% Triton X-100; Bovine Serum Albumin 0.05 mg.ml^−1 pH8.8). Compounds stocks (100 mM) were stored at −20° C. in DMSO.
Reactions were performed as duplicates in Black LJL 96 well plates (HE microplates; Molecular Devices; 20 μl final reaction volume). The substrate concentration for USP8 was 400 nM Ub-AMC (Boston Biochem). The concentrations of the enzyme (USP8) in specificity assays was 630 pM. The concentrations were determined in order to perform specificity assays under initial velocities at fixed substrate concentration. Compounds were pre-incubated with enzymes for 30 minutes at 25° C. Reactions were initiated by addition of substrate to the plates containing the enzymes (+/−compounds) diluted in assay buffer. Reactions were incubated for 60 minutes at 37° C. Reactions were stopped by adding acetic acid (100 mM final). Readings were performed on a Pherastar Fluorescent Reader (BMG). λ Emission 380 nm; λ Excitation=460 nm. Data (mean values +/−standard deviation) were analyzed as % of control (no compound) and plotted as percentage versus the Log of the compound concentration using GraphPad (Prism). Data were fitted to a sigmoidal model (variable slope).
C=CCON=C1c2ccccc2-c2nn3c(C)nnc3nc21 (mixture of isomers) [5b, 3-Methyl-1,2,3a,4,10-pentaaza-cyclopenta[b]fluoren-9-one O-allyl-oxime] showed a pIC50 of 6.45. For c1ccc(OCCCON=C2c3ccccc3-c3nn4nnnc4nc32)cc1 (mixture of isomers) [8c, 1,2,3,3a,4,10-Hexaaza-cyclopenta[b]fluoren-9-one O-(3-phenoxy-propyl)-oxime], the pIC50 was 6.65. With C=CCON=C1c2ccccc2-c2nn3c(CC)nnc3nc21 (mixture of isomers) [10f, 3-Ethyl-1,2,3a,4,10-pentaaza-cyclopenta[b]fluoren-9-one O-allyl-oxime] the pIC50 was 6.47. Work on C=CCON=C1c2ccccc2-c2nn3c(CCCC)nnc3nc21 (mixture of isomers) [5d, 3-Butyl-1,2,3a,4,10-pentaaza-cyclopenta[b]fluoren-9-one O-allyl-oxime] yielded a pIC50 of 6.25. CCc1nnc2nc3c(nn12)-c1ccccc1C3=NOCc1ccccc1 (mixture of isomers) [10h, 3-Ethyl-1,2,3a,4,10-pentaaza-cyclopenta[b]fluoren-9-one O-benzyl-oxime] was tested, and the pIC50 was 6.09. Compound CCON=C1c2ccccc2-c2nn3c(CC)nnc3nc21 (mixture of isomers) [10d, 3-Ethyl-1,2,3a,4,10-pentaaza-cyclopenta[b]fluoren-9-one O-ethyl-oxime] has a pIC50 of 6.42. Work on CCCCCCCCCCON=C1c2ccccc2-c2nn3nnnc3nc21 (mixture of isomers) [8a, 1,2,3,3a, 4,10-Hexaaza-cyclopenta[b]fluoren-9-one O-decyl-oxime] yielded a pIC50 of 4.56. With CCc1nnc2nc3c(nn12)-c1ccccc1C3=NOC (mixture of isomers) [10b, 3-Ethyl-1,2,3a,4,10-pentaaza-cyclopenta[b]fluoren-9-one O-methyl-oxime] the pIC50 was 6.28. For CON=C1c2ccccc2-c2nn3c(C)nnc3nc21 (mixture of isomers) [5a, 3-Methyl-1,2,3a,4,10-pentaaza-cyclopenta[b]fluoren-9-one O-methyl-oxime], the pIC50 was 6.24.

— patent US20100048575A1, “NOVEL TETRACYCLIC INHIBITORS OF CYSTEINE PROTEASES, THE PHARMACEUTICAL COMPOSITIONS THEREOF AND THEIR THERAPEUTIC APPLICATIONS” (priority 2006, published 2010)
